According to PubChem BioAssay (NCI):
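Assay format: 96-well plates, 48-hour exposure. TGI marks complete inhibition of growth.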 Active and inactive are the calls of the source. Rule as the data show it: active = GI50 below about 0.43 µM; inactive = the rest.

Key:
Experiment in all cases: inhibition of tumour cell growth, NCI panel, 48 h
786-0 renal = tested on: 786-0 renal
A498 renal = tested on: A498 renal
A549 NSCLC = tested on: A549 NSCLC
ACHN renal = tested on: ACHN renal
BT-549 breast = tested on: BT-549 breast
CCRF-CEM leukemia = tested on: CCRF-CEM leukemia
COLO 205 colon = tested on: COLO 205 colon
DU-145 prostate = tested on: DU-145 prostate
EKVX NSCLC = tested on: EKVX NSCLC
HCC-2998 colon = tested on: HCC-2998 colon
HCT-116 colon = tested on: HCT-116 colon
HCT-15 colon = tested on: HCT-15 colon
HL-60(TB) leukemia = tested on: HL-60(TB) leukemia
HOP-62 NSCLC = tested on: HOP-62 NSCLC
HOP-92 NSCLC = tested on: HOP-92 NSCLC
HS 578T breast = tested on: HS 578T breast
HT29 colon = tested on: HT29 colon
IGROV1 ovarian = tested on: IGROV1 ovarian
KM12 colon = tested on: KM12 colon
LOX IMVI melanoma = tested on: LOX IMVI melanoma
M14 melanoma = tested on: M14 melanoma
MALME-3M melanoma = tested on: MALME-3M melanoma
MCF7 breast = tested on: MCF7 breast
MDA-MB-231 breast = tested on: MDA-MB-231 breast
MDA-MB-435 = tested on: MDA-MB-435
MOLT-4 leukemia = tested on: MOLT-4 leukemia
NCI-H226 lung = tested on: NCI-H226 lung
NCI-H23 lung = tested on: NCI-H23 lung
NCI-H460 lung = tested on: NCI-H460 lung
NCI-H522 lung = tested on: NCI-H522 lung
NCI/ADR-RES ovarian = tested on: NCI/ADR-RES ovarian
OVCAR-3 ovarian = tested on: OVCAR-3 ovarian
OVCAR-4 ovarian = tested on: OVCAR-4 ovarian
OVCAR-5 ovarian = tested on: OVCAR-5 ovarian
OVCAR-8 ovarian = tested on: OVCAR-8 ovarian
PC-3 prostate = tested on: PC-3 prostate
RPMI-8226 leukemia = tested on: RPMI-8226 leukemia
SF-268 CNS = tested on: SF-268 CNS
SF-295 CNS = tested on: SF-295 CNS
SF-539 CNS = tested on: SF-539 CNS
SK-MEL-2 melanoma = tested on: SK-MEL-2 melanoma
SK-MEL-28 melanoma = tested on: SK-MEL-28 melanoma
SK-MEL-5 melanoma = tested on: SK-MEL-5 melanoma
SK-OV-3 ovarian = tested on: SK-OV-3 ovarian
SN12C renal = tested on: SN12C renal
SNB-19 CNS = tested on: SNB-19 CNS
SNB-75 CNS = tested on: SNB-75 CNS
SR leukemia = tested on: SR leukemia
SW-620 colon = tested on: SW-620 colon
T-47D breast = tested on: T-47D breast
TK-10 renal = tested on: TK-10 renal
U251 CNS = tested on: U251 CNS
UACC-257 melanoma = tested on: UACC-257 melanoma
UACC-62 melanoma = tested on: UACC-62 melanoma
UO-31 renal = tested on: UO-31 renal
CAKI-1 renal = tested on: CAKI-1 renal
K-562 leukemia = tested on: K-562 leukemia
RXF 393 renal = tested on: RXF 393 renal

CC(=O)OC1C2CCC1C1C2N=NN1c1ccc([N+](=O)[O-])cc1 (configuration not stated)
TGI (786-0 renal): > 100 µM | TGI (A498 renal): > 100 µM | TGI (A549 NSCLC): > 100 µM | TGI (ACHN renal): > 100 µM | TGI (BT-549 breast): > 100 µM | TGI (CCRF-CEM leukemia): > 100 µM | TGI (COLO 205 colon): > 100 µM | TGI (DU-145 prostate): > 100 µM | TGI (EKVX NSCLC): > 100 µM | TGI (HCC-2998 colon): > 100 µM | TGI (HCT-116 colon): > 100 µM | TGI (HCT-15 colon): > 100 µM | TGI (HL-60(TB) leukemia): > 100 µM | TGI (HOP-62 NSCLC): > 100 µM | TGI (HOP-92 NSCLC): > 100 µM | TGI (HS 578T breast): > 100 µM | TGI (HT29 colon): > 100 µM | TGI (IGROV1 ovarian): > 100 µM | TGI (KM12 colon): > 100 µM | TGI (LOX IMVI melanoma): > 100 µM | TGI (M14 melanoma): > 100 µM | TGI (MALME-3M melanoma): > 100 µM | TGI (MCF7 breast): > 100 µM | TGI (MDA-MB-231 breast): > 100 µM | TGI (MDA-MB-435): > 100 µM | TGI (MOLT-4 leukemia): > 100 µM | TGI (NCI-H226 lung): > 100 µM | TGI (NCI-H23 lung): > 100 µM | TGI (NCI-H460 lung): > 100 µM | TGI (NCI-H522 lung): > 100 µM | TGI (NCI/ADR-RES ovarian): > 100 µM | TGI (OVCAR-3 ovarian): > 100 µM | TGI (OVCAR-4 ovarian): > 100 µM | TGI (OVCAR-5 ovarian): > 100 µM | TGI (OVCAR-8 ovarian): > 100 µM | TGI (PC-3 prostate): > 100 µM | TGI (RPMI-8226 leukemia): > 100 µM | TGI (SF-268 CNS): > 100 µM | TGI (SF-295 CNS): > 100 µM | TGI (SF-539 CNS): > 100 µM | TGI (SK-MEL-2 melanoma): > 100 µM | TGI (SK-MEL-28 melanoma): > 100 µM | TGI (SK-MEL-5 melanoma): > 100 µM | TGI (SK-OV-3 ovarian): > 100 µM | TGI (SN12C renal): > 100 µM | TGI (SNB-19 CNS): > 100 µM | TGI (SNB-75 CNS): > 100 µM | TGI (SR leukemia): > 100 µM | TGI (SW-620 colon): > 100 µM | TGI (T-47D breast): > 100 µM | TGI (TK-10 renal): > 100 µM | TGI (U251 CNS): > 100 µM | TGI (UACC-257 melanoma): > 100 µM | TGI (UACC-62 melanoma): > 100 µM | TGI (UO-31 renal): > 100 µM

O=c1cc(-c2cc(O)c(O)c(-c3c(O)cc(O)c4c(=O)cc(-c5ccc(O)c(O)c5)oc34)c2)oc2cc(O)cc(O)c12
outcome (A498 renal): inactive | outcome (A549 NSCLC): inactive | outcome (BT-549 breast): inactive | outcome (CAKI-1 renal): inactive | outcome (CCRF-CEM leukemia): inactive | outcome (COLO 205 colon): inactive | outcome (DU-145 prostate): inactive | outcome (EKVX NSCLC): inactive | outcome (HCC-2998 colon): inactive | outcome (HCT-116 colon): inactive | outcome (HCT-15 colon): inactive | outcome (HL-60(TB) leukemia): inactive | outcome (HOP-62 NSCLC): inactive | outcome (HOP-92 NSCLC): inactive | outcome (HS 578T breast): inactive | outcome (HT29 colon): inactive | outcome (IGROV1 ovarian): inactive | outcome (K-562 leukemia): inactive | outcome (LOX IMVI melanoma): inactive | outcome (M14 melanoma): inactive | outcome (MALME-3M melanoma): inactive | outcome (MCF7 breast): inactive | outcome (MDA-MB-231 breast): inactive | outcome (MDA-MB-435): inactive | outcome (MOLT-4 leukemia): inactive | outcome (NCI-H23 lung): inactive | outcome (NCI-H460 lung): inactive | outcome (NCI/ADR-RES ovarian): inactive | outcome (OVCAR-3 ovarian): inactive | outcome (OVCAR-4 ovarian): inactive | outcome (OVCAR-5 ovarian): inactive | outcome (OVCAR-8 ovarian): inactive | outcome (PC-3 prostate): inactive | outcome (RXF 393 renal): inactive | outcome (SF-268 CNS): inactive | outcome (SF-295 CNS): inactive | outcome (SF-539 CNS): inactive | outcome (SK-MEL-2 melanoma): inactive | outcome (SK-MEL-28 melanoma): inactive | outcome (SK-MEL-5 melanoma): inactive | outcome (SK-OV-3 ovarian): inactive | outcome (SN12C renal): inactive | outcome (SNB-19 CNS): inactive | outcome (SNB-75 CNS): inactive | outcome (SR leukemia): inactive | outcome (SW-620 colon): inactive | outcome (T-47D breast): inactive | outcome (TK-10 renal): inactive | outcome (U251 CNS): inactive | outcome (UACC-257 melanoma): inactive | outcome (UACC-62 melanoma): inactive | outcome (UO-31 renal): inactive
